Assay results reported in ChEMBL document CHEMBL1201862, “PubChem BioAssay data set” (2004).
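In this assay, cells in 96-well plates receive the compound at five concentrations for 48 hours. Endpoints are linearly interpolated between the surrounding concentrations. Abbreviation: GI50, concentration required for 50% inhibition of growth.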 Calls of active or inactive are those of the source. Cut-off read from the data, not from the text of the source: active = GI50 up to about 1.1 µM and inactive = higher.

Columns and labels:
Assay in all cases: NCI-60 cell line screen, 48 h
786-0 = tested on: 786-0
A498 = tested on: A498
A549 = tested on: A549
ACHN = tested on: ACHN
BT-549 = tested on: BT-549
CAKI-1 = tested on: CAKI-1
CCRF-CEM = tested on: CCRF-CEM
COLO 205 = tested on: COLO 205
DU-145 = tested on: DU-145
EKVX = tested on: EKVX
HCC 2998 = tested on: HCC 2998
HCT-116 = tested on: HCT-116
HCT-15 = tested on: HCT-15
HL-60 = tested on: HL-60
HOP-92 = tested on: HOP-92
HT-29 = tested on: HT-29
Hs-578T = tested on: Hs-578T
IGROV-1 = tested on: IGROV-1
K562 = tested on: K562
KM12 = tested on: KM12
LOX IMVI = tested on: LOX IMVI
M14 = tested on: M14
MCF7 = tested on: MCF7
MDA-MB-231 = tested on: MDA-MB-231
MDA-MB-435 = tested on: MDA-MB-435
MDA-N = tested on: MDA-N
MOLT-4 = tested on: MOLT-4
Malme-3M = tested on: Malme-3M
NCI-H226 = tested on: NCI-H226
NCI-H23 = tested on: NCI-H23
NCI-H460 = tested on: NCI-H460
NCI-H522 = tested on: NCI-H522
NCI/ADR-RES = tested on: NCI/ADR-RES
OVCAR-3 = tested on: OVCAR-3
OVCAR-4 = tested on: OVCAR-4
OVCAR-5 = tested on: OVCAR-5
OVCAR-8 = tested on: OVCAR-8
PC-3 = tested on: PC-3
RXF 393 = tested on: RXF 393
SF-268 = tested on: SF-268
SF-295 = tested on: SF-295
SF-539 = tested on: SF-539
SK-MEL-28 = tested on: SK-MEL-28
SK-MEL-2 = tested on: SK-MEL-2
SK-MEL-5 = tested on: SK-MEL-5
SK-OV-3 = tested on: SK-OV-3
SN12C = tested on: SN12C
SNB-19 = tested on: SNB-19
SW-620 = tested on: SW-620
T47D = tested on: T47D
TK-10 = tested on: TK-10
U-251 = tested on: U-251
UACC-257 = tested on: UACC-257
UACC-62 = tested on: UACC-62
UO-31 = tested on: UO-31
HOP-62 = tested on: HOP-62
RPMI-8226 = tested on: RPMI-8226
SNB-75 = tested on: SNB-75

CC(C#N)NCc1ccc(C(C)NC(C)C#N)cc1 (stereo not drawn)
GI50 (786-0): > 100 µM (inactive)
GI50 (A498): > 100 µM (inactive)
GI50 (A549): > 100 µM (inactive)
GI50 (ACHN): > 100 µM (inactive)
GI50 (BT-549): > 100 µM (inactive)
GI50 (CAKI-1): > 100 µM (inactive)
GI50 (CCRF-CEM): > 100 µM (inactive)
GI50 (COLO 205): > 100 µM (inactive)
GI50 (DU-145): > 100 µM (inactive)
GI50 (EKVX): > 100 µM (inactive)
GI50 (HCC 2998): > 100 µM (inactive)
GI50 (HCT-116): > 100 µM (inactive)
GI50 (HCT-15): > 100 µM
GI50 (HL-60): > 100 µM (inactive)
GI50 (HOP-92): > 100 µM (inactive)
GI50 (HT-29): > 100 µM (inactive)
GI50 (Hs-578T): > 100 µM (inactive)
GI50 (IGROV-1): > 100 µM (inactive)
GI50 (K562): > 100 µM (inactive)
GI50 (KM12): > 100 µM (inactive)
GI50 (LOX IMVI): > 100 µM (inactive)
GI50 (M14): > 100 µM (inactive)
GI50 (MCF7): > 100 µM (inactive)
GI50 (MDA-MB-231): > 100 µM (inactive)
GI50 (MDA-MB-435): > 100 µM (inactive)
GI50 (MDA-N): > 100 µM (inactive)
GI50 (MOLT-4): > 100 µM (inactive)
GI50 (Malme-3M): 96.6 µM (inactive)
GI50 (NCI-H226): > 100 µM (inactive)
GI50 (NCI-H23): > 100 µM (inactive)
GI50 (NCI-H460): > 100 µM (inactive)
GI50 (NCI-H522): > 100 µM (inactive)
GI50 (NCI/ADR-RES): > 100 µM (inactive)
GI50 (OVCAR-3): > 100 µM (inactive)
GI50 (OVCAR-4): > 100 µM (inactive)
GI50 (OVCAR-5): > 100 µM (inactive)
GI50 (OVCAR-8): > 100 µM (inactive)
GI50 (PC-3): > 100 µM (inactive)
GI50 (RXF 393): > 100 µM (inactive)
GI50 (SF-268): > 100 µM (inactive)
GI50 (SF-295): > 100 µM (inactive)
GI50 (SF-539): > 100 µM (inactive)
GI50 (SK-MEL-28): > 100 µM (inactive)
GI50 (SK-MEL-2): > 100 µM (inactive)
GI50 (SK-MEL-5): > 100 µM (inactive)
GI50 (SK-OV-3): > 100 µM (inactive)
GI50 (SN12C): > 100 µM (inactive)
GI50 (SNB-19): > 100 µM (inactive)
GI50 (SW-620): > 100 µM (inactive)
GI50 (T47D): > 100 µM (inactive)
GI50 (TK-10): > 100 µM (inactive)
GI50 (U-251): > 100 µM (inactive)
GI50 (UACC-257): > 100 µM (inactive)
GI50 (UACC-62): > 100 µM (inactive)
GI50 (UO-31): 93.1 µM (inactive)

C=C=C(CC(CC(=C)Br)(C(=O)OC)C(=O)OC)S(=O)(=O)c1ccccc1
GI50 (786-0): 1.05 µM (active)
GI50 (A498): 5.6 µM (inactive)
GI50 (A549): 2.78 µM (inactive)
GI50 (ACHN): 2.39 µM (inactive)
GI50 (BT-549): 1.4 µM (inactive)
GI50 (CAKI-1): 1.41 µM (inactive)
GI50 (CCRF-CEM): 0.497 µM (active)
GI50 (COLO 205): 1.84 µM (inactive)
GI50 (DU-145): 1.6 µM (inactive)
GI50 (EKVX): 2.82 µM (inactive)
GI50 (HCC 2998): 2.58 µM (inactive)
GI50 (HCT-116): 0.92 µM (active)
GI50 (HCT-15): 1.51 µM
GI50 (HL-60): 0.494 µM (active)
GI50 (HOP-62): 5.21 µM (inactive)
GI50 (HOP-92): 1.95 µM (inactive)
GI50 (HT-29): 1.62 µM (inactive)
GI50 (Hs-578T): 2.39 µM (inactive)
GI50 (IGROV-1): 1.66 µM (inactive)
GI50 (K562): 1.48 µM (inactive)
GI50 (KM12): 2.29 µM (inactive)
GI50 (LOX IMVI): 0.419 µM (active)
GI50 (M14): 1.96 µM (inactive)
GI50 (MCF7): 1.87 µM (inactive)
GI50 (MDA-MB-231): 1.98 µM (inactive)
GI50 (MDA-MB-435): 1.74 µM (inactive)
GI50 (MDA-N): 2.44 µM (inactive)
GI50 (MOLT-4): 1.91 µM (inactive)
GI50 (Malme-3M): 1.91 µM (inactive)
GI50 (NCI-H226): 6.12 µM (inactive)
GI50 (NCI-H23): 2.05 µM (inactive)
GI50 (NCI-H460): 5.86 µM (inactive)
GI50 (NCI-H522): 0.556 µM (active)
GI50 (NCI/ADR-RES): 2.26 µM (inactive)
GI50 (OVCAR-3): 2.27 µM (inactive)
GI50 (OVCAR-4): 8.89 µM (inactive)
GI50 (OVCAR-5): 1.65 µM (inactive)
GI50 (OVCAR-8): 1.29 µM (inactive)
GI50 (PC-3): 1.73 µM (inactive)
GI50 (RPMI-8226): 1.85 µM (inactive)
GI50 (RXF 393): 1.83 µM (inactive)
GI50 (SF-268): 2.37 µM (inactive)
GI50 (SF-295): 13.4 µM (inactive)
GI50 (SF-539): 1.8 µM (inactive)
GI50 (SK-MEL-28): 1.76 µM (inactive)
GI50 (SK-MEL-2): 2.5 µM (inactive)
GI50 (SK-MEL-5): 3.11 µM (inactive)
GI50 (SK-OV-3): 16.6 µM (inactive)
GI50 (SN12C): 1.53 µM (inactive)
GI50 (SNB-19): 12.2 µM (inactive)
GI50 (SNB-75): 6.22 µM (inactive)
GI50 (SW-620): 1.58 µM (inactive)
GI50 (T47D): 3.77 µM (inactive)
GI50 (TK-10): 1.96 µM (inactive)
GI50 (U-251): 1.5 µM (inactive)
GI50 (UACC-257): 2.03 µM (inactive)
GI50 (UACC-62): 1.61 µM (inactive)
GI50 (UO-31): 1.71 µM (inactive)
